Results published in PubChem BioAssay (NCI).
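GI50: concentration for 50% inhibition of growth. TGI: total growth inhibition.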

Experiments:
Test in all cases: NCI-60 cell line screen, 384-well format
SW-620 colon = system: SW-620 colon
U251 glioblastoma = system: U251 glioblastoma
UO-31 renal = system: UO-31 renal
CAKI-1 renal = system: CAKI-1 renal
786-0 renal = system: 786-0 renal
SN12C renal = system: SN12C renal
MDA-MB-468 breast = system: MDA-MB-468 breast
OVCAR-5 ovarian = system: OVCAR-5 ovarian
SK-MEL-28 melanoma = system: SK-MEL-28 melanoma
SK-MEL-2 melanoma = system: SK-MEL-2 melanoma
HCT-116 colon = system: HCT-116 colon
MDA-MB-231 breast = system: MDA-MB-231 breast
HCT-15 colon = system: HCT-15 colon
SF-268 CNS = system: SF-268 CNS
K-562 leukemia = system: K-562 leukemia
TK-10 renal = system: TK-10 renal
NCI-H460 NSCLC = system: NCI-H460 NSCLC
NCI-H226 lung = system: NCI-H226 lung
MCF7 breast = system: MCF7 breast
HT29 colon = system: HT29 colon
COLO 205 colon = system: COLO 205 colon
MALME-3M melanoma = system: MALME-3M melanoma
A549 NSCLC = system: A549 NSCLC
HL-60(TB) leukemia = system: HL-60(TB) leukemia
HOP-92 NSCLC = system: HOP-92 NSCLC
SK-MEL-5 melanoma = system: SK-MEL-5 melanoma
KM12 colon = system: KM12 colon
ACHN renal = system: ACHN renal
T-47D breast = system: T-47D breast
SF-295 CNS = system: SF-295 CNS
UACC-62 melanoma = system: UACC-62 melanoma
SR leukemia = system: SR leukemia
NCI/ADR-RES ovarian = system: NCI/ADR-RES ovarian
NCI-H23 lung = system: NCI-H23 lung
MDA-MB-435 melanoma = system: MDA-MB-435 melanoma
NCI-H322M lung = system: NCI-H322M lung
BT-549 breast = system: BT-549 breast
RPMI-8226 leukemia = system: RPMI-8226 leukemia
A498 renal = system: A498 renal
LOX IMVI melanoma = system: LOX IMVI melanoma
MOLT-4 leukemia = system: MOLT-4 leukemia
EKVX NSCLC = system: EKVX NSCLC
NCI-H522 lung = system: NCI-H522 lung
RXF 393 renal = system: RXF 393 renal
SK-OV-3 ovarian = system: SK-OV-3 ovarian
DU-145 prostate = system: DU-145 prostate
CCRF-CEM leukemia = system: CCRF-CEM leukemia
OVCAR-4 ovarian = system: OVCAR-4 ovarian
HOP-62 NSCLC = system: HOP-62 NSCLC
IGROV1 ovarian = system: IGROV1 ovarian
M14 melanoma = system: M14 melanoma
SNB-19 CNS = system: SNB-19 CNS
HS 578T breast = system: HS 578T breast
SF-539 CNS = system: SF-539 CNS
OVCAR-3 ovarian = system: OVCAR-3 ovarian
PC-3 prostate = system: PC-3 prostate
HCC-2998 colon = system: HCC-2998 colon
UACC-257 melanoma = system: UACC-257 melanoma
SNB-75 CNS = system: SNB-75 CNS

Cc1cc([N+](=O)[O-])ccc1NS(=O)(=O)c1cc(Cl)ccc1Cl
GI50 (SW-620 colon): 5.93 µM
TGI (SW-620 colon): 46 µM
GI50 (U251 glioblastoma): 2.91 µM
TGI (U251 glioblastoma): 10.5 µM
GI50 (UO-31 renal): 12.4 µM
TGI (UO-31 renal): 43.9 µM
GI50 (CAKI-1 renal): 5.52 µM
TGI (CAKI-1 renal): 39 µM
GI50 ([…]-0 renal): 7.49 µM
TGI (786-0 renal): 33.6 µM
GI50 (SN12C renal): 5.83 µM
TGI (SN12C renal): 49.4 µM
GI50 (MDA-MB-468 breast): 2.16 µM
TGI (MDA-MB-468 breast): 9.32 µM
GI50 (OVCAR-5 ovarian): 12.9 µM
TGI (OVCAR-5 ovarian): 44.1 µM
GI50 (SK-MEL-28 melanoma): 5.46 µM
TGI (SK-MEL-28 melanoma): 32.4 µM
GI50 (SK-MEL-2 melanoma): 33.1 µM
TGI (SK-MEL-2 melanoma): 49.5 µM
GI50 (HCT-116 colon): 4.45 µM
TGI (HCT-116 colon): 16 µM
GI50 (MDA-MB-231 breast): 5.07 µM
TGI (MDA-MB-231 breast): 30.8 µM
GI50 (HCT-15 colon): 3.44 µM
TGI (HCT-15 colon): 14.9 µM
GI50 (SF-268 CNS): 3.78 µM
TGI (SF-268 CNS): 27.5 µM
GI50 (K-562 leukemia): 7.36 µM
TGI (K-562 leukemia): 55.7 µM
GI50 (TK-10 renal): 11.4 µM
TGI (TK-10 renal): > 100 µM
GI50 (NCI-H460 NSCLC): 2.89 µM
TGI (NCI-H460 NSCLC): 11.6 µM
GI50 (NCI-H226 lung): 6.27 µM
TGI (NCI-H226 lung): 20.2 µM
GI50 (MCF7 breast): 7.65 µM
TGI (MCF7 breast): 25.2 µM
GI50 (HT29 colon): 4.53 µM
TGI (HT29 colon): > 100 µM
GI50 (COLO 205 colon): 17.1 µM
TGI (COLO 205 colon): 78 µM
GI50 (MALME-3M melanoma): 5.38 µM
TGI (MALME-3M melanoma): 24.4 µM
GI50 (A549 NSCLC): 4.62 µM
TGI (A549 NSCLC): 24 µM
GI50 (HL-60(TB) leukemia): 2.74 µM
TGI (HL-60(TB) leukemia): 5.97 µM
GI50 (HOP-92 NSCLC): 3.63 µM
TGI (HOP-92 NSCLC): 16.4 µM
GI50 (SK-MEL-5 melanoma): 2.45 µM
TGI (SK-MEL-5 melanoma): 7.27 µM
GI50 (KM12 colon): 6.61 µM
TGI (KM12 colon): 43.9 µM
GI50 (ACHN renal): 14.4 µM
TGI (ACHN renal): 67.9 µM
GI50 (T-47D breast): 2.65 µM
TGI (T-47D breast): 6.31 µM
GI50 (SF-295 CNS): 3.99 µM
TGI (SF-295 CNS): 22.1 µM
GI50 (UACC-62 melanoma): 13.3 µM
TGI (UACC-62 melanoma): 33.3 µM
GI50 (SR leukemia): 19.1 µM
TGI (SR leukemia): 33.3 µM
GI50 (NCI/ADR-RES ovarian): 3.26 µM
TGI (NCI/ADR-RES ovarian): 15.9 µM
GI50 (NCI-H23 lung): 2.98 µM
TGI (NCI-H23 lung): 13.1 µM
GI50 (MDA-MB-435 melanoma): 3.21 µM
TGI (MDA-MB-435 melanoma): 26.6 µM
GI50 (NCI-H322M lung): 3.85 µM
TGI (NCI-H322M lung): 16.4 µM
GI50 (BT-549 breast): 3.08 µM
TGI (BT-549 breast): 8.84 µM
GI50 (RPMI-8226 leukemia): 2.09 µM
TGI (RPMI-8226 leukemia): 4.48 µM
GI50 (A498 renal): 4.63 µM
TGI (A498 renal): 22.6 µM
GI50 (LOX IMVI melanoma): 3.74 µM
TGI (LOX IMVI melanoma): 13.3 µM
GI50 (MOLT-4 leukemia): 7.48 µM
TGI (MOLT-4 leukemia): 20.2 µM
GI50 (EKVX NSCLC): 3.64 µM
TGI (EKVX NSCLC): 14.6 µM
GI50 (NCI-H522 lung): 2.87 µM
TGI (NCI-H522 lung): 8.65 µM
GI50 (RXF 393 renal): 4.56 µM
TGI (RXF 393 renal): 22.3 µM
GI50 (SK-OV-3 ovarian): 13.8 µM
TGI (SK-OV-3 ovarian): 49.8 µM
GI50 (DU-145 prostate): 10.1 µM
TGI (DU-145 prostate): > 100 µM
GI50 (CCRF-CEM leukemia): 5.19 µM
TGI (CCRF-CEM leukemia): 18.4 µM
GI50 (OVCAR-4 ovarian): 6.02 µM
TGI (OVCAR-4 ovarian): > 100 µM
GI50 (HOP-62 NSCLC): 13.5 µM
TGI (HOP-62 NSCLC): 35.5 µM
GI50 (IGROV1 ovarian): 18.9 µM
TGI (IGROV1 ovarian): > 100 µM
GI50 (M14 melanoma): 16.9 µM
TGI (M14 melanoma): 68.3 µM
GI50 (SNB-19 CNS): 5.5 µM
TGI (SNB-19 CNS): 75.6 µM
GI50 (HS 578T breast): 3.02 µM
TGI (HS 578T breast): 10.6 µM
GI50 (SF-539 CNS): 5.29 µM
TGI (SF-539 CNS): 20.1 µM
GI50 (OVCAR-3 ovarian): 3.56 µM
TGI (OVCAR-3 ovarian): 15.4 µM
GI50 (PC-3 prostate): 3.59 µM
TGI (PC-3 prostate): 14.6 µM
GI50 (HCC-2998 colon): 5.29 µM
TGI (HCC-2998 colon): 24.5 µM
GI50 (UACC-257 melanoma): 4.95 µM
TGI (UACC-257 melanoma): 19.2 µM
GI50 (SNB-75 CNS): 9.67 µM
TGI (SNB-75 CNS): 35.4 µM
